Test results reported in PubChem BioAssay (NCI).
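Assay format: 96-well plates, 48-hour exposure. At the GI50, growth is halved. TGI marks complete inhibition of growth.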

Assays:
Test in all cases: growth of human tumour cells (NCI), 48 h
[1] = system: 786-0 renal
[2] = system: A498 renal
[3] = system: A549 NSCLC
[4] = system: ACHN renal
[5] = system: BT-549 breast
[6] = system: CAKI-1 renal
[7] = system: CCRF-CEM leukemia
[8] = system: COLO 205 colon
[9] = system: DU-145 prostate
[10] = system: EKVX NSCLC
[11] = system: HCC-2998 colon
[12] = system: HCT-116 colon
[13] = system: HCT-15 colon
[14] = system: HL-60(TB) leukemia
[15] = system: HOP-62 NSCLC
[16] = system: HOP-92 NSCLC
[17] = system: HS 578T breast
[18] = system: HT29 colon
[19] = system: IGROV1 ovarian
[20] = system: K-562 leukemia
[21] = system: KM12 colon
[22] = system: LOX IMVI melanoma
[23] = system: M14 melanoma
[24] = system: MALME-3M melanoma
[25] = system: MCF7 breast
[26] = system: MDA-MB-231 breast
[27] = system: MDA-MB-435
[28] = system: MOLT-4 leukemia
[29] = system: NCI-H226 lung
[30] = system: NCI-H23 lung
[31] = system: NCI-H460 lung
[32] = system: NCI-H522 lung
[33] = system: NCI/ADR-RES ovarian
[34] = system: OVCAR-3 ovarian
[35] = system: OVCAR-4 ovarian
[36] = system: OVCAR-5 ovarian
[37] = system: OVCAR-8 ovarian
[38] = system: PC-3 prostate
[39] = system: RPMI-8226 leukemia
[40] = system: RXF 393 renal
[41] = system: SF-268 CNS
[42] = system: SF-295 CNS
[43] = system: SF-539 CNS
[44] = system: SK-MEL-2 melanoma
[45] = system: SK-MEL-28 melanoma
[46] = system: SK-MEL-5 melanoma
[47] = system: SK-OV-3 ovarian
[48] = system: SN12C renal
[49] = system: SNB-19 CNS
[50] = system: SNB-75 CNS
[51] = system: SR leukemia
[52] = system: SW-620 colon
[53] = system: T-47D breast
[54] = system: TK-10 renal
[55] = system: U251 CNS
[56] = system: UACC-257 melanoma
[57] = system: UACC-62 melanoma
[58] = system: UO-31 renal

## COc1ccc(C(=O)COc2cccc(/C=C3\CSc4ccccc4C3=O)c2)cc1
[1]
  GI50: 1.75 µM
  TGI: 3.69 µM
[2]
  GI50: 16.5 µM
  TGI: 32 µM
[3]
  GI50: 9.04 µM
  TGI: 39.5 µM
[4]
  GI50: 1.93 µM
  TGI: 3.86 µM
[5]
  GI50: 1.8 µM
  TGI: 3.67 µM
[6]
  GI50: 4.07 µM
  TGI: 12.5 µM
[7]
  GI50: 0.313 µM
  TGI: 1.09 µM
[8]
  GI50: 2.93 µM
  TGI: 6.95 µM
[9]
  GI50: 2.53 µM
  TGI: 5.4 µM
[10]
  GI50: 5.3 µM
  TGI: 14.8 µM
[11]
  GI50: 1.82 µM
  TGI: 3.39 µM
[12]
  GI50: 1.35 µM
  TGI: 2.78 µM
[13]
  GI50: 2.08 µM
  TGI: 6.07 µM
[14]
  GI50: 2.25 µM
  TGI: > 23.2 µM
[15]
  GI50: 2.84 µM
  TGI: 7.6 µM
[16]
  GI50: 2.4 µM
  TGI: 9.08 µM
[17]
  GI50: 0.424 µM
  TGI: 4.91 µM
[18]
  GI50: 1.55 µM
  TGI: 3.18 µM
[19]
  GI50: 1.49 µM
  TGI: 3.35 µM
[20]
  GI50: 0.362 µM
[21]
  GI50: 1.56 µM
  TGI: 3.05 µM
[22]
  GI50: 1.54 µM
  TGI: 2.98 µM
[23]
  GI50: 2.01 µM
  TGI: 4.01 µM
[24]
  GI50: 2.2 µM
  TGI: 5.58 µM
[25]
  GI50: 0.537 µM
  TGI: 2.22 µM
[26]
  GI50: 4.33 µM
  TGI: 12.5 µM
[27]
  GI50: 1.98 µM
  TGI: 4.62 µM
[28]
  GI50: 0.913 µM
  TGI: 19.3 µM
[29]
  GI50: 4.63 µM
  TGI: 14.9 µM
[30]
  GI50: 2.14 µM
  TGI: 4.78 µM
[31]
  GI50: 3.56 µM
  TGI: 12 µM
[32]
  GI50: 1.73 µM
  TGI: 3.86 µM
[33]
  GI50: 3.08 µM
  TGI: 9.64 µM
[34]
  GI50: 1.88 µM
  TGI: 3.65 µM
[35]
  GI50: 2.79 µM
  TGI: 9.87 µM
[36]
  GI50: 2.18 µM
  TGI: 4.77 µM
[37]
  GI50: 2.65 µM
  TGI: 6.71 µM
[38]
  GI50: 2.03 µM
  TGI: 5.03 µM
[39]
  GI50: 0.342 µM
  TGI: 3.69 µM
[40]
  GI50: 2.42 µM
  TGI: 5.39 µM
[41]
  GI50: 2.47 µM
  TGI: 5.77 µM
[42]
  GI50: 1.87 µM
  TGI: 3.77 µM
[43]
  GI50: 2.95 µM
  TGI: 8.51 µM
[44]
  GI50: 1.86 µM
  TGI: 3.49 µM
[45]
  GI50: 2.04 µM
  TGI: 3.71 µM
[46]
  GI50: 1.78 µM
  TGI: 3.27 µM
[47]
  GI50: 10.8 µM
  TGI: 45.7 µM
[48]
  GI50: 2.63 µM
  TGI: 8.31 µM
[49]
  GI50: 2.77 µM
  TGI: 8.73 µM
[50]
  GI50: 4.85 µM
  TGI: 18.4 µM
[51]
  GI50: 0.395 µM
[52]
  GI50: 0.262 µM
  TGI: 0.707 µM
[53]
  GI50: 2.33 µM
  TGI: 5.79 µM
[54]
  GI50: 2.73 µM
  TGI: 9.79 µM
[55]
  GI50: 1.57 µM
  TGI: 2.99 µM
[56]
  GI50: 2.49 µM
  TGI: 6.12 µM
[57]
  GI50: 1.72 µM
  TGI: 3.3 µM
[58]
  GI50: 1.69 µM
  TGI: 3.46 µM
